What was measured:
[1] = Assay for DPPH radical scavenging; settings: 500 μM; 30 min in the dark
Procedure: To evaluate the DPPH radical-scavenging efficacy of 1–15, a DPPH methanol solution was mixed with compounds 1–15, and the mixture was left in the dark. After 30 min, the radical-scavenging efficacy of each compound was determined by measuring the optical density at 517 nm. Vitamin C (L-ascorbic acid) was used for comparing radical-scavenging activity, and all test samples were treated at 500 μM.
DPPH was dissolved in methanol to prepare a 0.2 mM solution, and test samples (vitamin C [L-ascorbic acid, LA; positive control] and 1–15) were dissolved in DMSO to prepare a 5 mM solution. The DPPH methanolic solution (180 μL) was added to the test sample DMSO solution (20 μL) in each well of a 96-well microplate and kept in a place without light for 30 min at 22 °C. Using a VersaMax™ ELISA reader, the optical density of each well was recorded at 517 nm to determine DPPH radical-scavenging activity.

[2] = Assay for ABTS+ radical scavenging; settings: 100 μM
Procedure: The ABTS^+-scavenging efficacy of compounds 1–15 was determined by oxidizing ABTS with K2S2O8 to prepare ABTS^+. The prepared ABTS^+ solution was mixed with the test samples (1–15 and Trolox, a positive control) and the radical-scavenging efficacy of the test samples was explored by measuring the decrease in optical density at 732 nm. All test samples were tested at 100 μM.
To acquire ABTS^+ radicals, ABTS (14 mM in 20 mL H2O) was mixed with K2S2O8 (4.9 mM in 20 mL H2O), an oxidant agent, and stored at 22 °C in a place without light for 15 h. The absorbance of the prepared ABTS^+ radical solution was adjusted to 0.70 ± 0.01 at 732 nm by adding methanol. Test samples (Trolox [positive control] and 1–15) were dissolved in a co-solvent (DMSO:EtOH = 1:10 [v/v]). The diluted ABTS^+ radical solution (90 μL) was added to the test sample solution (10 μL) in each well of a 96-well plate and held at 22 °C in the dark for 2 min. The optical density of each well was recorded at 732 nm every 1 min for 10 min using an ELISA reader. The final concentration of test samples was 100 μM. %Radical-scavenging activity was determined using the formula 100 × [(Abscon − Abssam)/Abscon], where Abscon and Abssam represent the optical densities of the control and the samples, respectively.

Structure (SMILES)	DPPH radical scavenging [1] [%]	ABTS+ scavenging [2] [%]
COc1cc(/C=C2\SC(Nc3cccc4ccccc34)=NC2=O)cc(OC)c1O [Compound 13, (Z)-5-(4-Hydroxy-3,5-dimethoxybenzylidene)-2-(naphthalen-1-ylamino)thiazol-4(5H)-one]	51	97
COc1cc(/C=C2\SC(Nc3cccc4ccccc34)=NC2=O)ccc1O [Compound 5, (Z)-5-(4-Hydroxy-3-methoxybenzylidene)-2-(naphthalen-1-ylamino)thiazol-4(5H)-one]	62	
CC(C)(C)c1cc(/C=C2\SC(Nc3cccc4ccccc34)=NC2=O)cc(C(C)(C)C)c1O [Compound 14, (Z)-5-(3,5-Di-tert-butyl-4-hydroxybenzylidene)-2-(naphthalen-1-ylamino)thiazol-4(5H)-one]	68	95
COc1ccc(/C=C2\SC(Nc3cccc4ccccc34)=NC2=O)cc1O [Compound 6, (Z)-5-(3-Hydroxy-4-methoxybenzylidene)-2-(naphthalen-1-ylamino)thiazol-4(5H)-one]	21	
CCOc1cc(/C=C2\SC(Nc3cccc4ccccc34)=NC2=O)ccc1O [Compound 7, (Z)-5-(3-Ethoxy-4-hydroxybenzylidene)-2-(naphthalen-1-ylamino)thiazol-4(5H)-one]	61	
O=C1O[C@H]([C@@H](O)CO)C(O)=C1O [Vitamin C, L-ascorbic acid, reference compound]	90	
